According to patent US20240058308A1, “TREATMENT AND PREVENTION OF DRY MACULAR DEGENERATION” (The Regents of the University of Michigan, priority 2021, published 2024):
Values after ≈ are worked out from the molar mass of the structure shown.

What was measured:
primary hfRPE culture [1] = experiment: Trans-epithelial electrical resistance (TEER), tight-junction integrity; type: cell-based; settings: TEER measured after 20 FLBZ feedings, after UAM accumulation
Experimental: TEER and cell death were measured [Ref 51; incorporated by reference in its entirety]. For cell death assays, maximum possible LDH release per Transwell was measured immediately after 2 μL of the final experimental supernate was taken. The Transwell and supernate was then treated with 0.2% Triton X-100 for 15 minutes at 37° C. followed by collection of an additional 2 μL of supernate. Each experimental LDH release value was first normalized to total LDH release from the vehicle condition. Additionally, all TEER and LDH release measurements were normalized to the vehicle group at the zero-hour timepoint.
(§1) To evaluate the safety of D4476 and FLBZ, trans-epithelial electrical resistance (TEER) was measured, a measure of tight-junction integrity, in RPE cultures after prolonged exposure to each compound. As well-formed tight-junctions require myriad cell processes to be optimally coordinated, assessing TEER provides an easily measurable, ongoing, and noninvasive marker for general RPE cell health [Ref. 45; incorporated by reference in its entirety]. […] Lactate dehydrogenase (LDH) release, a combined marker of necrotic and late-stage apoptotic cell death [Refs. 47,48; incorporated by reference in their entireties], was reduced compared to vehicle for all four verified RPE autophagy inducers (FIG. 3b). Exposure of RPE cultures to the oxidant tert-butyl hydroperoxide confirmed the ability of the assay to detect cell death (FIG. 10).
Transepithelial Electrical Resistance (TEER) was tested (FIGS. 16 and 17). TEER is a sensitive measure of toxicity (lower the TEER, the more toxic the drug is). Drugs were added daily and measurements made daily for at least 4-8 days.

hfRPE = type: cell-based, human
Experimental: Whole mounted Transwells (in duplicate) are photographed.
as §1

primary RPE cultures = experiment: APOE secretion by western blotting of supernates; type: cell-based, human; settings: 24 hours
Experimental: After 24 hours of exposure to drugs, supernates were collected and subjected to western blotting for APOE detection and a fluorometric assay for β-HB detection [Ref 51; incorporated by reference in its entirety]. Twenty microliters of apical and basolateral supernates for APOE were mixed with SDS sample buffer and blotted with antibody at a dilution of 1:2000. APOE and β-HB values were normalized to the average value of the vehicle and experimental group within each experimental repeat.
The RPE handles an enormous lipid burden on a daily basis, including OS ingestion from its apical side and lipoprotein particle absorption from its basolateral side. Rather than storing excess lipid, the RPE may choose to degrade or secrete surplus lipids (FIG. 4a). A marker of lipid degradation is the production of KBs, which are secreted by the RPE apically and serve as an energy source for photoreceptors [Refs. 7,8; incorporated by reference in their entireties]. A marker of lipid secretion is the production of the lipoprotein APOE, which is a major component of drusen [Ref. 50; incorporated by reference in its entirety]. It was contemplated that autophagy inducers promote ketogenesis through degradation of ingested lipids, reducing the stimulus for secretion of drusen-promoting APOE.

primary hfRPE culture [2] = system: primary hfRPE culture
Experimental: Phagocytosis assays using bovine outer segments was performed using the “pulse-only” method [Ref 43; incorporated by reference in its entirety]. Values at the zero-hour timepoint were used for normalization.

RPE of mouse eye = experiment: Intravitreal injection in mouse eyes, autophagy by LC3II/LC3I ratio of lysates; type: in vivo; settings: four concentrations up to 500 uM, multiple timepoints, DMSO in other eye
Experimental: Experiments were conducted during development of embodiments herein to assay for autophagy in the mouse eye. Experiments were conducted to measure autophagy by giving an intraperitoneal injection of leupeptin, followed by assaying for LC3 puncta in an RPE flatmount of a GFP-LC3 mouse. Background from GFP-LC3 debris deposited on the RPE when the retina was peeled off for the flat mount prevented signal detection. A biochemical assay was then employed for autophagy induction, measuring an increase in the lipidation of the autophagy core protein LC3 (lipidated LC3=LC3-II, unlipidated LC3=LC3-I, so higher LC3-II/LC3-I ratio indicates autophagy induction). Sufficient signal as obtained. […] Harvesting techniques were also optimized for collecting RPE from mouse eyes.
Experiments were conducted during development of embodiments herein to establish a positive control for autophagy induction. […] Autophagy induction was measured at 4 different concentrations of Torin (500 nm, 5 um, 50 um, 500 um) and at 5 different timepoints after injection (1 day, 3 days, 7 days, 14 days, 28 days). […] Nevertheless, the ability of intravitreal injections of FLBZ to induce autophagy in the RPE was assessed. In preparation for injecting FLBZ intravitreally into mice, solubility assays were performed and the maximum amount of FLBZ that can be injected without it crashing out of solution in the vitreous was determined. […]

ARPE-19 = experiment: LC3 colocalization to UAM granules; type: cell-based, human; settings: ARPE-19 treated with drug
Description: FIG. 5. Autophagy inducer FLBZ reduces accumulation of lipofuscin-like material. (A) Lipofuscin-like material, which we term undigestible autofluorescent material (UAM), accumulates in RPE after repeated feedings of photo-oxidized outer segments (oxOS). UAM granules (green). DAPI (blue). Phalloidin stain of F-actin outlining cell borders (pink). Scale bar: 10 μm. (B) Effects of FLBZ or Torin on UAM accumulation (left) and elimination (right). FLBZ or Torin is fed together with oxOS daily for 20 days in a month (left, n=5) or fed daily for 20 days in a month after completion of oxOS feedings to stimulate UAM accumulation (right, n=7). Unlike Torin, FLBZ both reduces UAM accumulation and increases UAM elimination. DMSO as vehicle control. U 673 AM normalized to DMSO condition. […] UAM (red). LC3 (green). DAPI (blue). Arrows indicate LC3 puncta surrounding a lipofuscin granule. Scale bar: 2 μm. (D) Effects of FLBZ on UAM granule size. Compared to vehicle (DMSO), FLBZ decreases UAM granule size both during oxOS feedings (left) and after UAM buildup has already occurred (right). n=40. ns p>0.05, *p<0.05, **p<0.01, ***p<0.001.
Human fetal eyes were obtained from Advanced Bioscience Resources (ABR, Alameda, California) and cultured [Ref. 43; incorporated by reference in its entirety]. ARPE-19 cells were cultured at passage 19 [Ref. 51; incorporated by reference in its entirety].

[3] = Solubility assays of DMSO stock mixed with PBS (simulating the vitreous); type: physicochemical
Experimental: Experiments were conducted during development of embodiments herein to establish a positive control for autophagy induction. The direct mTOR inhibitor Torin1 was selected over rapamycin/sirolimus as the positive control, based on the capacity of Torin1 to induce autophagy in primary culture more strongly and more consistently than rapamycin. The experimental set-up involved injecting one eye with Torin and the other eye with the DMSO vehicle. Autophagy induction was measured at 4 different concentrations of Torin (500 nm, 5 um, 50 um, 500 um) and at 5 different timepoints after injection (1 day, 3 days, 7 days, 14 days, 28 days). […] Nevertheless, the ability of intravitreal injections of FLBZ to induce autophagy in the RPE was assessed. In preparation for injecting FLBZ intravitreally into mice, solubility assays were performed and the maximum amount of FLBZ that can be injected without it crashing out of solution in the vitreous was determined. […] This helped inform maximal concentrations of flubendazole that could be injected intravitreally. Four different concentrations were injected, up to the maximum solubility of FLBZ, and autophagy induction was assayed over a timeframe ranging from 1 week to 4 weeks after injection.

## COC(=O)Nc1nc2cc(C(=O)c3ccc(F)cc3)ccc2[nH]1 [FLBZ, Flubendazole]
Primary hfRPE culture [1]
  Cell health by tight-junction integrity (TEER) in cultures with established UAM: improved cell health
hfRPE
  RPE pigmentation: preserved pigmentation
Primary RPE cultures
  APOE secretion, apical and basolateral: reduced the apical and basolateral secretion of APOE
Primary hfRPE culture [2]
  OS phagocytosis efficiency / OS degradative capacity: no effect on OS degradative capacity
RPE of mouse eye
  Autophagy induction in RPE after intravitreal injection (LC3II/LC3I ratio): no convincing evidence for autophagy induction
ARPE-19
  LC3 colocalization to UAM granules: LC3 colocalization to UAM granules
[3]; DMSO stock solution mixed with PBS (simulating the vitreous), aqueous with cosolvent or surfactant or cyclodextrin, kinetic from dmso stock, delivered in 1 ul of DMSO, read-out: Maximum soluble concentration for intravitreal injection
  solubility: 500 µM (≈ 157 µg/mL)
[3]; Torin 1 mM stock mixed 1:1 with PBS, flubendazole 3 mM stock
  Precipitation of DMSO stock solution when mixed with PBS: crashed out when mixed with PBS unless at a dilution of 1:20 or more
